This is an account of results in patent publication US7794753B2, “Synergistic hepatoprotective composition and a method thereof” (Council of Scientific and Industrial Research, priority 2003, dated 2010).

For data set [1], the system named is restinosis following Angio plasty. Conditions: animal model, compared with fish oil; cited from earlier work.
Data set [2] has as its system Paracetamol (APAP) induced hepatic injury. The data set is classed as in vivo. Conditions: prophylactic. The procedure: […] Formulation is extremely safe having a therapeutic index of >40. No mortality was recorded up to a dose of 2 g-kg-1 p.o. in mice.
The conditions of data set [3]: After 72 hrs, mostly by urinary excretion; cited from earlier work.
For data set [4], the system named is paracetamol (APAP) induced hepatic injury. Description: Hepatoprotective activity (in vivo) of synergistic formulation and Silymarin against paracetamol (APAP) induced hepatic injury in mice (prophylactic study). Conditions: 50 mg/kg p.o. + APAP. Here is the method:
All the list materials were administered P.O. routes in a uniform dose level of 50 mg kg-1. Formulation is extremely safe having a therapeutic index of >40. No mortality was recorded up to a dose of 2 g-kg-1 p.o. in mice.

For data set [5], the system named is Acetaminophen (APAP) induced hepatic injury. Description: Hepatoprotective activity (in vivo) of TCA and silymarin (Pre-treatment), diethyl-ether plus Acetaminophen (APAP) (prophylactic study). On the set-up: species or system Mice: Swiss albino. Conditions: 50 mg/kg p.o. fed at 72 h, 48 h, 24 h, 1 h before diethyl-ether and 1 h after APAP 200 mg/kg i.p.

With `C=C1CC[C@@H]2[C@](C)(CO)[C@H](O)CC[C@@]2(C)[C@@H]1C/C=C1/C(=O)OC[C@H]1O` [AP, andrographolide], the “preventing the incidence and severity of restinosis following Angio plasty” value in data set [1] was “twice as effective as fish oil”. For the same compound, in data set [2] (50 mg kg−1 + APAP), the “Hepatic GSH (glutathione)” value turned out to be 4.48 ± 0.25 μmole GSH/g liver. In addition, in data set [2] (100 mg kg−1 + APAP), the “Serum TG, percent hepatoprotective activity (in parentheses)” value is reported as “(63.00) %”. For the same compound, the excreted in data set [3] is recorded as approximately 90%.

On to `CCCCCCCC/C=C/CCCCCCCCCCCCCC(=O)O` [TCA, trans-tetracos-15-enoic acid], for which the “S. Albumin, percent hepatoprotective activity” value in data set [4] is reported as 56.35%. Further, the “Serum Bilirubin, percent hepatoprotective activity” value in data set [5] was determined as 56.35%.
